Assay results published in US7495027B2, “3-aryl-4-hydroxyfuranone compounds and the human and animal health use thereof” (Wyeth, priority 2003, dated 2009).
Values after ≈ are worked out from the molar mass of the structure shown. Read-outs that look alike come from different tables or passages of the source.

What was measured:
[1] = test system: Streptococci; experiment: Minimum inhibitory concentration, microdilution broth method, streptococci; format: cell-based; conditions: S. pneumo GC 1894; Mueller-Hinton broth with 5% horse blood, 18-22 hours at 35° C.
Summary of the method: (§1)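 Following NCCLS standard M7-A5, MICs were determined by microdilution in Mueller-Hinton broth, with 5% horse blood added for streptococci.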

[2] = test system: staphylococci; experiment: Minimum inhibitory concentration, microdilution broth method, staphylococci; format: cell-based; conditions: Staphylococcus aureus, Mueller-Hinton broth, 18-22 hours at 35° C.
Summary of the method: as §1

[3] = test system: enterococci; experiment: Minimum inhibitory concentration, microdilution broth method, enterococci; format: cell-based; conditions: Enterococcus faecalis, Mueller-Hinton broth, 18-22 hours at 35° C.
Summary of the method: as §1

[4] = molecular target: E. coli Uridine-diphosphate-N-acetvimuramoyl: L-alanine lipase, MurC (Escherichia coli, UniProt P17952); experiment: Inhibitory activity against MurC (E. coli); format: biochemical; conditions: (E) E. coli enzyme; for IC50: read-out: MurC IC50 (converted)
Chain of E. coli Uridine-diphosphate-N-acetvimuramoyl: L-alanine lipase, MurC (P17952 whole entry): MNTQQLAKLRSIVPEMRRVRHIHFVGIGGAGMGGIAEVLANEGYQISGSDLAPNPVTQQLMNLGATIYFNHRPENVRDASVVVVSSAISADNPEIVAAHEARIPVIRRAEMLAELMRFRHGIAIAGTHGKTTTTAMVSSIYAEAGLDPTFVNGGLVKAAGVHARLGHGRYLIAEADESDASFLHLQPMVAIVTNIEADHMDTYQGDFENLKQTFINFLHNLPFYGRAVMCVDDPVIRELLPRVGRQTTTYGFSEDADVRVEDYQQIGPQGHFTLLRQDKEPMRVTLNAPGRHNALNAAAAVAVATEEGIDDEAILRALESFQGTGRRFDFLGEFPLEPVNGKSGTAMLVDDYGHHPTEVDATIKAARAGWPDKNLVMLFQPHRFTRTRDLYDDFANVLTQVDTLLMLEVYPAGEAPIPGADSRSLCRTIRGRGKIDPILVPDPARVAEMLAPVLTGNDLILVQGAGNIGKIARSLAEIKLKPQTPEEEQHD

[5] = molecular target: T1, S. aureus Uridine-diphosphate-N-acetvimuramoyl: L-alanine lipase, MurC (Staphylococcus aureus, UniProt Q2FXJ0); experiment: biochemical; conditions: (S) S. aureus enzyme; read-out: MurC IC50 (converted)
T1 sequence (Q2FXJ0 1-437): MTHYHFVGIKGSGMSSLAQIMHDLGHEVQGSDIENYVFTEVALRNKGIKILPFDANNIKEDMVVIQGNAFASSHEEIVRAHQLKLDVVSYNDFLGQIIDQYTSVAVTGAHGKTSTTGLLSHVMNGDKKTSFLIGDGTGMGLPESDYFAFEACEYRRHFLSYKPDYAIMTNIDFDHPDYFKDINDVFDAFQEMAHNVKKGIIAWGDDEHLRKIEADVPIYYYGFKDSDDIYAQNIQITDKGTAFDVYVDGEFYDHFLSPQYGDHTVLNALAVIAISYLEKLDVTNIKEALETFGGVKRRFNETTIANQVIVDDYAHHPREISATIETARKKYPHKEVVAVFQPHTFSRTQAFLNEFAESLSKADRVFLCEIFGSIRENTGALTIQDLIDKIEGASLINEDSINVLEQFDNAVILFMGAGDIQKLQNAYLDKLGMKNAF
Procedure: S. aureus and E. coli Uridine-diphosphate-N-acetvimuramoyl: L-alanine lipase, MurC
(§2) Preparation of Enzyme Solution:
A 1 mg/mL stock solution of MurC is prepared in a buffer consisting of 20 mM Tris/HCl (pH 8.5) with 2.5 μM BME. The stock solution is further diluted with the buffer to give a final enzyme concentration of 100 μg/mL for the E. coli stock solution and 70 μg/mL for the S. aureus stock solution.
Preparation of Test Compound Solutions:
All test solutions are prepared in DMSO as 10 mg/mL, then diluted with 50 mM Tris/HCl (pH 8.5) to 100 μg/mL.
(§3) Preparation of Stop Solution:
The stop solution is prepared by stirring 1 part 4.2% ammonium molydbate in 4N HCl with 2 parts 0.045% malachite green for 30 min.
In this evaluation, the inhibitory activity of a test compound against MurC, the enzyme which catalyzes the third step of bacterial cell wall bioxynthesis is determined. Experiments are performed by adding 2.5 μl buffer, 2.5 μl 0.5M NH4SO2, 5 μl 2 μM L-Ala, 5 μl enzyme solution and 6.5 μl test compound solution to each well in a 96-well microplate. After a pre-incubation period of 10 mins. at 23° C., 3.75 μl of a 0.75 μM solution of UDP-MurNac is added to each well. Following an incubation period of 10 mins. at 37° C., 210 μl stop solution and 50 μl of a 34% w/v sodium citrate solution are added and color is allowed to develop for 10 mins. at 23° C. (Lanzetta et al., Analytical Biochemistry, 1979, 95) Optical density readings are taken at 660 nm using a Molecular Devices Spectra Max 250 with Soft Max software. Controls are performed using the same procedure and omitting the addition of UDP-MurNac. […]
Using these values the IC50 is determined by linear regression analysis.

[6] = molecular target: T2, S. aureus Uridine-diphosphate-N-acetylmuramoyl-L-alanine: D-glutamate liease, MurD (Staphylococcus aureus, UniProt Q2FZ92); experiment: biochemical; conditions: (S) S. aureus enzyme
T2 sequence (Q2FZ92 1-449): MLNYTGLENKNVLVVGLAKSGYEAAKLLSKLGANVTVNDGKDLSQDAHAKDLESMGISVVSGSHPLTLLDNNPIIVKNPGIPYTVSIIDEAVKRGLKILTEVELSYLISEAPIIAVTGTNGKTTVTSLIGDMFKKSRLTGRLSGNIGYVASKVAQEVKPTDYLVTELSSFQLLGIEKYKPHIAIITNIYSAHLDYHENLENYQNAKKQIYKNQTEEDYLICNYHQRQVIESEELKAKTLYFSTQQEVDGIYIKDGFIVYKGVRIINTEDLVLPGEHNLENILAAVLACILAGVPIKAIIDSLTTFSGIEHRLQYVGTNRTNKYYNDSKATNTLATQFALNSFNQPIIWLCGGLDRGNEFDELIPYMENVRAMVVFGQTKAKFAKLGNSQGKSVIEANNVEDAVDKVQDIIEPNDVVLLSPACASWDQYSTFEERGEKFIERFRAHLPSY
Summary of the method: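 Test solutions, 10 mg/mL stocks in DMSO, were brought to 100 μg/mL with 50 mM Tris/HCl (pH 8.5). Their inhibition of MurD, the enzyme of the fourth cell wall biosynthesis step, was measured.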

[7] = molecular target: T3, S. aureus Enopyruvyl-UPD-N-acetylglucosamine reductase, Mur B (Staphylococcus aureus, UniProt P61431); experiment: biochemical; conditions: (S) S. aureus enzyme; read-out: MurB IC50 (converted)
T3 sequence (P61431 1-307): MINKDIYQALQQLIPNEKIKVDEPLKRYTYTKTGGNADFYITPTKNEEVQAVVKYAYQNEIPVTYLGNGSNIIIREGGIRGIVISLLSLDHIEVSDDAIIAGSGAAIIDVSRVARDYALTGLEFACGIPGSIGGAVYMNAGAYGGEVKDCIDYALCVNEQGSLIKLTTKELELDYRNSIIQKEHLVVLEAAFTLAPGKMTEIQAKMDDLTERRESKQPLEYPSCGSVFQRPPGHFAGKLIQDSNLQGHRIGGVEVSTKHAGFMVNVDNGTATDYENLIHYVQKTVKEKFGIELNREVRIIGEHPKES

[8] = molecular target: E. coli Enopyruvyl-UPD-N-acetylglucosamine reductase, Mur B (Escherichia coli, UniProt P08373); experiment: biochemical; conditions: (E) E. coli enzyme; for IC50: read-out: MurB IC50 (converted)
Chain of E. coli Enopyruvyl-UPD-N-acetylglucosamine reductase, Mur B (P08373 whole entry): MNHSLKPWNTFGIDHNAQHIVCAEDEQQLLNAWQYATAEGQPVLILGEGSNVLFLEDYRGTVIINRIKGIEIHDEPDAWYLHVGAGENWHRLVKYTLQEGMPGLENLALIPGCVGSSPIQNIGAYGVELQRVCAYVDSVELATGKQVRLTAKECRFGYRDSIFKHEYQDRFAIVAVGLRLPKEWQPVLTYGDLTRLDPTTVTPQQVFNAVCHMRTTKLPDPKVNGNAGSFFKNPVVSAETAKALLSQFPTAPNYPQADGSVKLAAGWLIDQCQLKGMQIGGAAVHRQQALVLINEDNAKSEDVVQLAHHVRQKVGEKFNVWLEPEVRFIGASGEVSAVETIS

[9] = molecular target: E. coli Uridine-diphosphate-N-acetylmuramoyl-L-alanine: D-glutamate liease, MurD (Escherichia coli, UniProt P14900); experiment: biochemical; conditions: (E) E. coli enzyme
Chain of E. coli Uridine-diphosphate-N-acetylmuramoyl-L-alanine: D-glutamate liease, MurD (P14900 whole entry): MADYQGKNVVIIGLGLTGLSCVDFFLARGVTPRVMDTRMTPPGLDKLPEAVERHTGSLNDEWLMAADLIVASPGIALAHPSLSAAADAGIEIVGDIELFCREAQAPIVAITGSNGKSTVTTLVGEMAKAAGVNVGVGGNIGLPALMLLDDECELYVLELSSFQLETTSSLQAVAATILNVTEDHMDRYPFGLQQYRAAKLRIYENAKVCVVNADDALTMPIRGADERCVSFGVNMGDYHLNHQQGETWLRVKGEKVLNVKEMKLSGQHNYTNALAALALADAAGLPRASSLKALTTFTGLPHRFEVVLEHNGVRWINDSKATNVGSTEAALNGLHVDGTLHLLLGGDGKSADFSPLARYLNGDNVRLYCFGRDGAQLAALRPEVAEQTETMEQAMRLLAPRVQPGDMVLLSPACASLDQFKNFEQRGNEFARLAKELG
Summary of the method: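 Compound working solutions reach 100 μg/mL in 50 mM Tris/HCl (pH 8.5) after dilution of 10 mg/mL DMSO stocks; final level in the well not given here. Reaction buffer finals: 2 mM ATP, 50 mM MgCl2, 83 mM Tris/HCl, pH 8.0.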

[10] = molecular target: E. coli UDP-N-acetylglucosamine enolpyruvoyl transferase, MurA (Escherichia coli, UniProt P0A749); experiment: biochemical; conditions: (E) E. coli enzyme
Chain of E. coli UDP-N-acetylglucosamine enolpyruvoyl transferase, MurA (P0A749 whole entry): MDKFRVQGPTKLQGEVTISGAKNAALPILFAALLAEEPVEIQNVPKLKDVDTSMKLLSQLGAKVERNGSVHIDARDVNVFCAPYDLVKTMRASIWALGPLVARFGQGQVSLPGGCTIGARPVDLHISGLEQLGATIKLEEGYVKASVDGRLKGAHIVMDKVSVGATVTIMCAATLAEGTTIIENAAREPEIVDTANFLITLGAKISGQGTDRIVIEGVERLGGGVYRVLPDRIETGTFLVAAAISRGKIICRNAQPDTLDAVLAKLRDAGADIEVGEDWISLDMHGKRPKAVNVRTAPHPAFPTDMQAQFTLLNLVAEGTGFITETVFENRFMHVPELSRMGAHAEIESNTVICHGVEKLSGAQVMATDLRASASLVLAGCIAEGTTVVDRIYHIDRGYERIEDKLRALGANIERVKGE
Summary of the method: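 Enzyme in 50 mM Tris/HCl pH 8.0 with 5 mM DTT and 20% glycerol was pre-incubated 10 min at 37° C with test compound in DMSO/water. Tris/BME and assay buffer then started the 1 hr, 37° C reaction, with a baseline 340 nm reading taken at start. Stop solution followed, and colour developed 30 minutes.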

[11] = molecular target: T4, S. aureus UDP-N-acetylglucosamine enolpyruvoyl transferase, MurA (Staphylococcus aureus, UniProt P84058); experiment: Inhibitory activity against MurA (S. aureus); format: biochemical; conditions: (S) S. aureus enzyme
T4 sequence (P84058 1-421): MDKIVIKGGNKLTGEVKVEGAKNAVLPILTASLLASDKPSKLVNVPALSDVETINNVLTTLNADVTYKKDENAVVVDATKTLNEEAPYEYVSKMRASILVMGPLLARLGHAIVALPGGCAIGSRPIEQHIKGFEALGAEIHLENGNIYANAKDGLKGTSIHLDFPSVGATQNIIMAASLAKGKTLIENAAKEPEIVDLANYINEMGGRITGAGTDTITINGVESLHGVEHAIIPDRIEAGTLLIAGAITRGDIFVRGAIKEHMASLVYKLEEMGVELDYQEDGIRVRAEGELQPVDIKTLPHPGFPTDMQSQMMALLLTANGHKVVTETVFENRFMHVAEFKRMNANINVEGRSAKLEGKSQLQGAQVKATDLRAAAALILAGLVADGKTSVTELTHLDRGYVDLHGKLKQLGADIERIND
Procedure: Evaluation of the Inhibitory Activity of Test Compounds Against Enzymes which Catalyze Bacterial Cell Wall Biosynthesis
S. aureus and E. coli UDP-N-acetylglucosamine enolpyruvoyl transferase, MurA
as §2
The enzyme solution is prepared by admixing the following: 50 mM Tris/HCl pH 8.0, […] 1 M Tris, 5 mM DTT, […] 1 M DTT, 20% Glycerol 4 ml 50% Glycerol, add water to 10 ml.
as §3
The stop solution is prepared by mixing the following: 4.2% ammonium molybdate in 4N HCl, 8.4 g/200 ml 4N HCl, 0.045% malachite green, 90 mg/200 ml water, then stir 1 part ammonium molybdate with 2 parts malachite green for 30 min.
A procedure similar to that described by C. T. Walsh in Biochemistry 33, 10646-10651, is used to evaluate the inhibitory activity of test compounds against MurA, the enzyme which catalyzes the first step of bacterial cell wall biosynthesis. Experiments are performed by adding a solution of test compound (in a mixture of dimethylsulfoxide and water) and an enzyme solution to a well. After a pre-incubation period of 10 mintues at 37° C., Tris/BME buffer and assay buffer are added. A start point optical density (OD0) reading is taken at 340 nm immediately following the addition of assay buffer. After incubation for 1 hr at 37° C., the stop solution is added and the color is allowed to develop for 30 minutes. An end point OD1 reading at […] is then taken. […]

[12] = S. aureus GC 1131, read-out: MIC S. aureus GC 1131
[13] = S. aureus GC 4543, read-out: MIC S. aureus GC 4543
[14] = E. faecalis GC 2242, read-out: MIC E. faecalis GC 2242
[15] = E. faecalis GC 4555, read-out: MIC E. faecalis GC 4555

Compound	MIC [1]	MIC [2, 12]	MIC [2, 13]	MIC [3, 14]	MIC [3, 15]	MurC IC50 [4]	IC50 [5]	IC50 [6]	IC50 [7]	MurB IC50 [8]	IC50 [9]	IC50 [8]	IC50 [10]	IC50 [4]	melting point	IC50 [11]
O=C1O/C(=C\c2cccc3ccccc23)C(O)=C1c1ccc(Cl)cc1 [Example 4, 3-(4-Chlorophenyl)-4-hydroxy-5-[(Z)-1-naphthylmethylidene]-furan-2-(5H)-one]	1 µg/mL (≈ 2.87 µM)	16 µg/mL (≈ 45.9 µM)	16 µg/mL (≈ 45.9 µM)	8 µg/mL (≈ 22.9 µM)	32 µg/mL (≈ 91.7 µM)	7 µg/mL	45.9 µM	68.8 µM								
O=C1O/C(=C\c2cccc3ccccc23)C(O)=C1c1cccc(C(F)(F)F)c1 [Example 5]	0.5 µg/mL (≈ 1.31 µM)	8 µg/mL (≈ 20.9 µM)	8 µg/mL (≈ 20.9 µM)	8 µg/mL (≈ 20.9 µM)	16 µg/mL (≈ 41.8 µM)	6 (E) μg/mL			15.7 µM	8 µg/mL						
COc1ccc(C2=C(O)/C(=C/c3cccc4ccccc34)OC2=O)cc1 [Example 6]	8 µg/mL (≈ 23.2 µM)	32 µg/mL (≈ 92.9 µM)	64 µg/mL (≈ 186 µM)	32 µg/mL (≈ 92.9 µM)	> 128 µg/mL				61 µM		> 72.6 µM	> 72.6 µM	> 72.6 µM	46.5 µM		
COc1ccc(C2=C(O)/C(=C/c3ccc4ccccc4c3)OC2=O)cc1 [Example 7]	2 µg/mL (≈ 5.81 µM)	32 µg/mL (≈ 92.9 µM)	64 µg/mL (≈ 186 µM)	32 µg/mL (≈ 92.9 µM)	64 µg/mL (≈ 186 µM)						> 72.6 µM	61 µM	> 72.6 µM	37.8 µM	257 to 258.5 °C	
CC(=O)c1ccccc1-c1ccc(/C=C2\OC(=O)C(c3cc(Cl)cc(Cl)c3)=C2O)cc1C [Example 40]	< 0.125 µg/mL	1 µg/mL (≈ 2.15 µM)	1 µg/mL (≈ 2.15 µM)	2 µg/mL (≈ 4.3 µM)	2 µg/mL (≈ 4.3 µM)		8.6 µM	15 µM								30.1 µM
O=C1O/C(=C\c2cccc(-c3ccc(Cl)c(Cl)c3)c2)C(O)=C1c1ccc(Cl)c(Cl)c1 [Example 135]	1 µg/mL (≈ 2.09 µM)	32 µg/mL (≈ 66.9 µM)	1 µg/mL (≈ 2.09 µM)	4 µg/mL (≈ 8.37 µM)	4 µg/mL (≈ 8.37 µM)			12.5 µM	6.27 µM			6.27 µM	4.18 µM	12.5 µM		
